Among the data in patent US20130225591A1, “IMIDOTHIAZOLE KINASE INHIBITORS” (priority 2009, published 2013) are IC50 values, retold here.

SMILES strings stand for the structures. Bounds are passed on as bounds.

For the first test, the target named is T1, CDK5-p25 kinase (Homo sapiens, UniProt Q00535).
T1 construct: purchased Invitrogen PV4677
T1 sequence (Q00535 whole entry): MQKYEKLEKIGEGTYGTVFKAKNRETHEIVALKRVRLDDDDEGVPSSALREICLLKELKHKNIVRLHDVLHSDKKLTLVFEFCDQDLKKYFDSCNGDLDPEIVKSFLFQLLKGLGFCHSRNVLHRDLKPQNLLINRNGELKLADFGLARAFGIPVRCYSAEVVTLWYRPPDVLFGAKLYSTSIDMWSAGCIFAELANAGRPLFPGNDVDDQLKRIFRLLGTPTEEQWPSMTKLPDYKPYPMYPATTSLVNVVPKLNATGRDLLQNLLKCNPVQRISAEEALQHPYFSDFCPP
T1 sequence (Q15078 99-307 partner limits assumed): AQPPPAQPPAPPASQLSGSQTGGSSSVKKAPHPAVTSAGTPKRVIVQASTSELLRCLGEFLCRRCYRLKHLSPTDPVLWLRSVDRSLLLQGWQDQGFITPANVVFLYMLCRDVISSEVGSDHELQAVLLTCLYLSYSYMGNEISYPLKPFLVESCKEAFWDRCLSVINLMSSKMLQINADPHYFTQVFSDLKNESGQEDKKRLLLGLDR
Nature of the test: CDK5-p25 kinase enzymatic assay. It is filed as biochemical. As to conditions: 50 nM-99 nM; 5 uM ATP, 0.3 nM CDK5-p25; read-out: IC50 potency, CDK5-p25 kinase enzymatic assay, 50 nM-99 nM. As for the experimental part: CDK5-p25 kinase (Invitrogen PV4677) enzymatic activity was measured using electrophoretic separation and fluorescent detection to monitor phosphorylation of a fluorescently labeled histone H1-derived peptide substrate, FL29 (5-FAM-GGGPATPKKAKKL-CONH2, Caliper #760429)
First, 0.25 uL of serially diluted compound in DMSO at 100× concentration was transferred into each well of a 384-well polystyrene assay plate. To this was added 15 uL of a 1.67× enzyme solution (500 pM enzyme, 1 mM DTT (Sigma D9779), 1× reconstitution buffer with protease inhibitor (Caliper #700329 proprietary formulation)), followed by centrifugation for 1 min at 1000 rpm, and incubation for 5-15 min at room temperature to allow binding of compound to enzyme. To initiate the reaction, 10 uL of substrate/ATP mix (245 mM Hepes pH 7.5, 0.003% Brij 35, 0.004% Tween, 12.75 uM ATP, 3.75 uM FL29 peptide) were added to each well, followed by centrifugation at 1000 rpm for 1 min. The reaction was then incubated at room temperature for 30 min. Final assay conditions were: 0.3 nM CDK5-p25, 1.5 uM peptide, 5 uM ATP, 0.6 mM DTT, 1% DMSO, 98 mM HEPES pH 7.5.
After incubation, reactions were quenched by the addition of 45 uL Caliper termination solution (Caliper proprietary formula), followed by centrifugation at 1000 rpm for 1 min. Extent of reaction (percentage conversion of substrate to phosphorylated product) was then measured using the Caliper EZ II reader. Dose-response curves were created by plotting the inhibition of enzyme activity (normalized relative to vehicle treated and no ATP control reactions) as a function of the log of compound concentration. The curve was analyzed using a four parameter logistical fit to calculate IC50 values.
With `CN(C)c1ccc(CC(=O)Nc2ncn3c(C(F)(F)F)csc23)cc1` [Example 31, 2-[4-(dimethylamino)phenyl]-N-[3-(trifluoromethyl)imidazo[5,1-b][1,3]thiazol-7-yl]acetamide], the IC50 was 50 to 99 nM.

Turning to `Nc1ncc(-c2ccc(CC(=O)Nc3ncn4c(C(F)(F)F)csc34)cc2)cn1` [Example 35, 2-[4-(2-aminopyrimidin-5-yl)phenyl]-N-[3-(trifluoromethyl)imidazo[5,1-b][1,3]thiazol-7-yl]acetamide], the IC50 fell in the range of 50 to 99 nM.

`C[C@H](C(=O)Nc1ncn2c(C(F)(F)F)csc12)c1ccc2ccccc2c1` [Example 36, (2S)-2-(2-naphthyl)-N-[3-(trifluoromethyl)imidazo[5,1-b][1,3]thiazol-7-yl]propanamide]: the 50% inhibitory concentration (IC50) lay in the range of 50 to 99 nM.

`CC(C(=O)Nc1ncn2c(C(F)(F)F)csc12)c1ccc2ncccc2c1` (centres unmarked) [Example 39, 2-quinolin-6-yl-N-[3-(trifluoromethyl)imidazo[5,1-b][1,3]thiazol-7-yl]propanamide]: the IC50 fell in the range of 50 to 99 nM.

As for `O=C(Cc1ccc2ccccc2c1)Nc1ncn2c(C(F)F)csc12` [Example 41, N-[3-(difluoromethyl)imidazo[5,1-b][1,3]thiazol-7-yl]-2-(2-naphthyl) acetamide], the concentration for half-maximal inhibition (IC50) fell in the range of 50 to 99 nM.

Take `O=C(Nc1ncn2c(C(F)(F)F)csc12)C(Cl)c1ccc2ccccc2c1` (centres unmarked) [Example 42, 2-chloro-2-(2-naphthyl)-N-[3-(trifluoromethyl)imidazo[5,1-b][1,3]thiazol-7-yl]acetamide]: the half-inhibitory concentration (IC50) is 50 to 99 nM.

As for `Nc1cc(Nc2cccc(CC(=O)Nc3ncn4c(C(F)(F)F)csc34)c2)ccn1` [Example 49, 2-{3-[(2-aminopyridin-4-yl)amino]phenyl}-N-[3-(trifluoromethyl)imidazo[5,1-b][1,3]thiazol-7-yl]acetamide], the half-inhibitory concentration (IC50) fell in the range of 50 to 99 nM.

For the compound `O=C(Cc1c[nH]c2ccccc12)Nc1ncn2c(C(F)(F)F)csc12` [Example 57, 2-(1H-indol-3-yl)-N-[3-(trifluoromethyl)imidazo[5,1-b][1,3]thiazol-7-yl]acetamide], the concentration for half-maximal inhibition (IC50) was 50 to 99 nM.

Take `O=C(Cc1cccc(NC(=O)c2cccnc2)c1)Nc1ncn2c(C(F)(F)F)csc12` [Example 59, N-[3-(2-oxo-2-{[3-(trifluoromethyl)imidazo[5,1-b][1,3]thiazol-7-yl]amino}ethyl)phenyl] nicotinamide]: the half-maximal inhibitory concentration (IC50) is 50 to 99 nM.

`O=C(Cc1cccc(NC(=O)c2ccncc2)c1)Nc1ncn2c(C(F)(F)F)csc12` [Example 60, N-[3-(2-oxo-2-{[3-(trifluoromethyl)imidazo[5,1-b][1,3]thiazol-7-yl]amino}ethyl)phenyl] isonicotinamide]: the IC50 lay in the range of 50 to 99 nM.

`O=C(Cc1ccc(NC(=O)c2cccnc2)cc1)Nc1ncn2c(C(F)(F)F)csc12` [Example 61, N-[4-(2-oxo-2-{[3-(trifluoromethyl)imidazo[5,1-b][1,3]thiazol-7-yl]amino}ethyl)phenyl] nicotinamide]: the IC50 lay in the range of 50 to 99 nM.

Consider `Nc1ccccc1-c1ccc(CC(=O)Nc2ncn3c(C(F)(F)F)csc23)cn1` [Example 63, 2-[6-(2-aminophenyl)pyridin-3-yl]-N-[3-(trifluoromethyl)imidazo[5,1-b][1,3]thiazol-7-yl]acetamide], for which the concentration for half-maximal inhibition (IC50) lay within 50 to 99 nM.

Still in this test, the particulars now being: 500 nM-3 μM; 5 uM ATP, 0.3 nM CDK5-p25; read-out: IC50 potency, CDK5-p25 kinase enzymatic assay, 500 nM-3 μM.
Regarding `O=C(Cc1ccc2ccccc2c1)Nc1ncn2c(C3CC3)csc12` [Example 38, N-(3-cyclopropyl-imidazo[5,1-b][1,3]thiazol-7-yl)-2-(2-naphthyl) acetamide], the half-maximal inhibitory concentration (IC50) is 500 to 3000 nM.

Regarding `C[C@@H](C(=O)Nc1ncn2c(C(F)(F)F)csc12)c1ccc2ncccc2c1` [Example 47, (2R)-2-quinolin-6-yl-N-[3-(trifluoromethyl)imidazo[5,1-b][1,3]thiazol-7-yl]propanamide], the concentration for half-maximal inhibition (IC50) fell in the range of 500 to 3000 nM.

Staying with this test, now noted: 5 uM ATP, 0.3 nM CDK5-p25; read-out: IC50 potency, CDK5-p25 kinase enzymatic assay, 100 nM-499 nM.
On to `O=C(Cc1cncnc1)Nc1ncn2c(C(F)(F)F)csc12` [Example 32, 2-pyrimidin-5-yl-N-[3-(trifluoromethyl)imidazo[5,1-b][1,3]thiazol-7-yl]acetamide], for which the IC50 was in the range of 100 to 499 nM.

With `CC(C(=O)Nc1ncn2c(C(F)(F)F)csc12)c1ccc2ccccc2c1` (centres unmarked) [Example 34, 2-(2-naphthyl)-N-[3-(trifluoromethyl)imidazo[5,1-b][1,3]thiazol-7-yl]propanamide], the IC50 is 100 to 499 nM.

As to `O=C(Nc1ncn2c(C(F)(F)F)csc12)C(O)c1ccc2ccccc2c1` (centres unmarked) [Example 40, 2-hydroxy-2-(2-naphthyl)-N-[3-(trifluoromethyl)imidazo[5,1-b][1,3]thiazol-7-yl]acetamide], the 50% inhibitory concentration (IC50) is 100 to 499 nM.

As to `Cc1cnc(-c2ccc(CC(=O)Nc3ncn4c(C(F)(F)F)csc34)cc2)cn1` [Example 51, 2-[4-(5-methylpyrazin-2-yl)phenyl]-N-[3-(trifluoromethyl)imidazo[5,1-b][1,3]thiazol-7-yl]acetamide], the IC50 was in the range of 100 to 499 nM.

Consider `CS(=O)(=O)c1ccc(CC(=O)Nc2ncn3c(C(F)(F)F)csc23)cc1` [Example 58, 2-[4-(methylsulfonyl)phenyl]-N-[3-(trifluoromethyl)imidazo[5,1-b][1,3]thiazol-7-yl]acetamide], for which the IC50 was 100 to 499 nM.

Staying with this test, now noted: '<50 nM'; 5 uM ATP, 0.3 nM CDK5-p25; read-out: IC50 potency, CDK5-p25 kinase enzymatic assay, <50 nM.
Turning to `O=C(Nc1ncn2c(C(F)(F)F)csc12)C(F)c1ccc2ccccc2c1` (centres unmarked) [Example 33, 2-fluoro-2-(2-naphthyl)-N-[3-(trifluoromethyl)imidazo[5,1-b][1,3]thiazol-7-yl]acetamide], the IC50 was less than 50 nM.

On to `O=C(Cc1ccc2[nH]ncc2c1)Nc1ncn2c(C(F)(F)F)csc12` [Example 37, 2-(1H-indazol-5-yl)-N-[3-(trifluoromethyl)imidazo[5,1-b][1,3]thiazol-7-yl]acetamide], for which the IC50 is less than 50 nM.

`O=C(Cc1ccc(Cl)cc1)Nc1ncn2c(C(F)(F)F)csc12` [Example 43, 2-(4-chlorophenyl)-N-[3-(trifluoromethyl)imidazo[5,1-b][1,3]thiazol-7-yl]acetamide]: the IC50 was less than 50 nM.

Take `C[C@H](C(=O)Nc1ncn2c(C(F)(F)F)csc12)c1ccc2ncccc2c1` [Example 46, (2S)-2-quinolin-6-yl-N-[3-(trifluoromethyl)imidazo[5,1-b][1,3]thiazol-7-yl]propanamide]: the 50% inhibitory concentration (IC50) was less than 50 nM.

Regarding `O=C(Cc1cccc(-c2cc[nH]n2)c1)Nc1ncn2c(C(F)(F)F)csc12` [Example 48, 2-[3-(1H-pyrazol-3-yl)phenyl]-N-[3-(trifluoromethyl)imidazo[5,1-b][1,3]thiazol-7-yl]acetamide], the IC50 is less than 50 nM.

With `O=C(Cc1ccc(-c2ccccc2)nc1)Nc1ncn2c(C(F)(F)F)csc12` [Example 50, 2-(6-phenylpyridin-3-yl)-N-[3-(trifluoromethyl)imidazo[5,1-b][1,3]thiazol-7-yl]acetamide], the concentration for half-maximal inhibition (IC50) was less than 50 nM.

Regarding `O=C(Cc1cccc(-c2cccnc2)c1)Nc1ncn2c(C(F)(F)F)csc12` [Example 52, 2-(3-pyridin-3-ylphenyl)-N-[3-(trifluoromethyl)imidazo[5,1-b][1,3]thiazol-7-yl]acetamide], the IC50 was less than 50 nM.

With `O=C(Cc1ccc(-c2ccsc2)cc1)Nc1ncn2c(C(F)(F)F)csc12` [Example 53, 2-[4-(3-thienyl)phenyl]-N-[3-(trifluoromethyl)imidazo[5,1-b][1,3]thiazol-7-yl]acetamide], the half-maximal inhibitory concentration (IC50) was less than 50 nM.

As for `O=C(Cc1ccc(-c2ccccn2)cc1)Nc1ncn2c(C(F)(F)F)csc12` [Example 54, 2-(4-pyridin-2-ylphenyl)-N-[3-(trifluoromethyl)imidazo[5,1-b][1,3]thiazol-7-yl]acetamide], the IC50 is less than 50 nM.

For the compound `Cc1ccc(-c2ccc(CC(=O)Nc3ncn4c(C(F)(F)F)csc34)cc2)cn1` [Example 55, 2-[4-(6-methylpyridin-3-yl)phenyl]-N-[3-(trifluoromethyl)imidazo[5,1-b][1,3]thiazol-7-yl]acetamide], the IC50 was less than 50 nM.

With `O=C(Cc1cccc(-c2ccccn2)c1)Nc1ncn2c(C(F)(F)F)csc12` [Example 56, 2-(3-pyridin-2-ylphenyl)-N-[3-(trifluoromethyl)imidazo[5,1-b][1,3]thiazol-7-yl]acetamide], the IC50 is less than 50 nM.

With `O=C(Cc1ccc(NC(=O)c2ccncc2)cc1)Nc1ncn2c(C(F)(F)F)csc12` [Example 62, N-[4-(2-oxo-2-{[3-(trifluoromethyl)imidazo[5,1-b][1,3]thiazol-7-yl]amino}ethyl)phenyl] isonicotinamide], the IC50 is less than 50 nM.

For `O=C(Cc1cccc(-c2ccncc2)c1)Nc1ncn2c(C(F)(F)F)csc12` [Example 64, 2-(3-pyridin-4-ylphenyl)-N-[3-(trifluoromethyl)imidazo[5,1-b][1,3]thiazol-7-yl]acetamide], the IC50 is less than 50 nM.

A word on the IC50: it is the midpoint of a concentration-inhibition curve.
